Tests used:
human recombinant HDAC1 = target: T1, human recombinant HDAC1 (Homo sapiens, UniProt Q13547); assay: HDAC1 enzyme activity inhibition test (HDAC Fluorometric Drug Discovery Kit); assay type: biochemical; details: 30° C., 60 minutes, 10 μM substrate
T1 construct: purchased Enzo Life Science BML-SE456
Description: (§1) The following experiment was conducted to confirm the HDAC6 selectivity of the compound represented by Chemical Formula I of the present invention through the HDAC1 and HDAC6 enzyme activity inhibition test.
(§2) HDAC enzyme activity was measured using HDAC Fluorometric Drug Discovery Kit (BML-AK511, 516) manufactured by Enzo Life Science. For the HDAC1 enzyme activity test, human recombinant HDAC1 (BML-SE456) was used as an enzyme source and Fluor de Lys-®-″SIRT1 (BNL-KI177) was used as a substrate. The 5-fold diluted compound was dispensed in a 96-well plate, 0.3 μg of enzyme and 10 μM substrate were added to each well and reacted at 30° C. for 60 minutes, and Fluor de Lys® Developer II(BML-KI176) was added and reacted for 30 minutes to complete the reaction. Then, the fluorescence value (Ex 360, Em 460) was measured using a multiplate reader (Flexstation 3, Molecular Device). The HDAC6 enzyme was tested using the same protocol as the HDAC1 enzyme activity test method employing human recombinant HDAC6 (382180) from Calbiochem. For the final result, each […] value was calculated using the GraphPad Prism 4.0 program.

human recombinant HDAC6 = target: T2, human recombinant HDAC6 (Homo sapiens, UniProt Q9UBN7); assay: HDAC6 enzyme activity inhibition test (HDAC Fluorometric Drug Discovery Kit); assay type: biochemical; details: for HDAC6 selectivity (fold): HDAC6 over HDAC1; for IC50: human recombinant HDAC6, same protocol as HDAC1
T2 construct: purchased Calbiochem 382180
T2 sequence (Q9UBN7 1-1215): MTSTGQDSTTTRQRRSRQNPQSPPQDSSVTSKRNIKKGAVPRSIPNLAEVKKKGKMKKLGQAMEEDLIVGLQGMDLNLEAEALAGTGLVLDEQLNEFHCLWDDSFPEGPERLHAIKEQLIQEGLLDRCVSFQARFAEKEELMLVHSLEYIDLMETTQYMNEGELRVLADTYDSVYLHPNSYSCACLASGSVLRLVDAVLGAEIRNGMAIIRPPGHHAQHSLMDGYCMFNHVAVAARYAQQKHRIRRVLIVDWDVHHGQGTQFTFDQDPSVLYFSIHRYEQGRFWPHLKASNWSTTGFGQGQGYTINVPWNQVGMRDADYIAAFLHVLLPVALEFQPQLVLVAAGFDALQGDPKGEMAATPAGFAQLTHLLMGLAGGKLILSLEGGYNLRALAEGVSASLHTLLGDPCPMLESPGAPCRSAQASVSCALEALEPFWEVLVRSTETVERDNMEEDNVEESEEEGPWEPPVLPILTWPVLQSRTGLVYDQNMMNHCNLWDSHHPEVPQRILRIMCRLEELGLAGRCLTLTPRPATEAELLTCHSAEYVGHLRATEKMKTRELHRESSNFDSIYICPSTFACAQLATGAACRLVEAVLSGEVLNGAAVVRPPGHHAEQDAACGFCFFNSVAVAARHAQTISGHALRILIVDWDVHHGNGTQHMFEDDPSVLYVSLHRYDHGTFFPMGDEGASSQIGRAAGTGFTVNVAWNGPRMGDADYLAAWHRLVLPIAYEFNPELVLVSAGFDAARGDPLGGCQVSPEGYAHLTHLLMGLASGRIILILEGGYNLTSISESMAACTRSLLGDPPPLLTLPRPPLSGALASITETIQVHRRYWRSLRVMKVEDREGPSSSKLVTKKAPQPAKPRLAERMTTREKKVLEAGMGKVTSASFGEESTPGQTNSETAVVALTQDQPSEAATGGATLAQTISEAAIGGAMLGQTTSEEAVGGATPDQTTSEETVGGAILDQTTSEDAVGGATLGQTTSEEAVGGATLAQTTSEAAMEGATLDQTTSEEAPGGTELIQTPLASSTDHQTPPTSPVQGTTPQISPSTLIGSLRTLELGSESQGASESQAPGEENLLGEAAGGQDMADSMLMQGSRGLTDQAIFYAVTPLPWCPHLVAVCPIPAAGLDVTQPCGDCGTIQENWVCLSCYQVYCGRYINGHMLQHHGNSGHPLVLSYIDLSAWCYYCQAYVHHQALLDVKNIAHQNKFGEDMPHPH
Description: as §1, §2

T1 sequence (Q13547 whole entry): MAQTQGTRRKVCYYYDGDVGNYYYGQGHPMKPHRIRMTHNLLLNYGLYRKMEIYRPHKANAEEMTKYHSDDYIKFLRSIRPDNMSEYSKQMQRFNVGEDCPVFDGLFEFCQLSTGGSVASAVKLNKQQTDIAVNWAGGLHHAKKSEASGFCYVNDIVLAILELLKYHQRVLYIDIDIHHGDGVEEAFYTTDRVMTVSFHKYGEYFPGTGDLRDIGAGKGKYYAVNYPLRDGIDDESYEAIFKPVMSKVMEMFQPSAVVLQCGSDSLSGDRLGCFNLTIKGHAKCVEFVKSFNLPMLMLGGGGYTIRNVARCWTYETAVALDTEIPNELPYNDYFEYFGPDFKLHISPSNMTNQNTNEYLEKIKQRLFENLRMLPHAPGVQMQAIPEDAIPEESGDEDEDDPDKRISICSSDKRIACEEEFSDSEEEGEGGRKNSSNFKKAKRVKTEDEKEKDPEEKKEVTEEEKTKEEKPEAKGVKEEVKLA

Row | Compound | IC50 (human recombinant HDAC1) [nM] | HDAC6 selectivity (fold) (human recombinant HDAC6) | IC50 (human recombinant HDAC6) [nM]
1 | O=c1oc(-c2ccc3c(c2)CN(C2CCC2)CC3)nn1Cc1ccc(-c2nnc(C(F)F)o2)cn1 [Compound 14, 5-(2-cyclobutyl-3,4-dihydro-1H-isoquinolin-7-yl)-3-[[5-[5-(difluoromethyl)-1,3,4-oxadiazol-2-yl]-2-pyridyl]methyl]-1,3,4-oxadiazol-2-one] | > 50000 | 478 | 105
2 | O=C1OCC(c2ccccn2)=NN1Cc1ncc(-c2nnc(C(F)F)o2)cc1F [Compound 73, 3-[[5-[5-(difluoromethyl)-1,3,4-oxadiazol-2-yl]-3-fluoro-2-pyridyl]methyl]-5-(2-pyridyl)-6H-1,3,4-oxadiazin-2-one] | > 50000 | 442 | 113
3 | O=c1sc(-c2ccccn2)nn1Cc1ccc(-c2nnc(C(F)F)o2)cn1 [Compound 49, 3-[[5-[5-(difluoromethyl)-1,3,4-oxadiazol-2-yl]-2-pyridyl]methyl]-5-(2-pyridyl)-1,3,4-thiadiazol-2-one] | > 50000 | 656 | 76.2
4 | CC(C)N1CCN(c2ccc(-c3nn(Cc4ccc(-c5nnc(C(F)F)o5)cn4)c(=O)o3)cc2)CC1 [Compound 22, 3-[[5-[5-(difluoromethyl)-1,3,4-oxadiazol-2-yl]-2-pyridyl]methyl]-5-[4-(4-isopropylpiperazin-1-yl)phenyl]-1,3,4-oxadiazol-2-one] | > 50000 | 479 | 104
5 | CC(C)N1CCc2ccc(-c3nn(Cc4ccc(-c5nnc(C(F)F)o5)cn4)c(=O)o3)cc2C1 [Compound 13, 3-[[5-[5-(difluoromethyl)-1,3,4-oxadiazol-2-yl]-2-pyridyl]methyl]-5-(2-isopropyl-3,4-dihydro-1H-isoquinolin-7-yl)-1,3,4-oxadiazol-2-one] | > 50000 | 475 | 105
6 | Cc1nc(-c2nn(Cc3ncc(-c4nnc(C(F)F)o4)cc3F)c(=S)o2)cs1 [Compound 60, 3-[[5-[5-(difluoromethyl)-1,3,4-oxadiazol-2-yl]-3-fluoro-2-pyridyl]methyl]-5-(2-methylthiazol-4-yl)-1,3,4-oxadiazol-2-thione] | > 50000 | 614 | 81.4
7 | FC(F)c1nnc(-c2ccc(Cn3nc(-c4cccs4)oc3=S)nc2)o1 [Compound 50, 3-[ [5-[5-(difluoromethyl) -1,3,4-oxadiazol-2-yl] -2-pyridyl]methyl] -5-(2-thienyl)-1,3,4-oxadiazol-2-thione] | > 50000 | 588 | 85.1
8 | O=c1oc(-c2ccc(CN3CCCC3)cc2)nn1Cc1ccc(-c2nnc(C(F)F)o2)cn1 [Compound 2, 3-((5-(5-(difluoromethyl)-1,3,4-oxadiazol-2-yl)pyridin-2-yl)methyl)-5-(4-(pyrrolidin-1-ylmethyl)phenyl)-1,3,4-oxadiazol-2(3H)-one] | > 50000 | 506 | 98.8
9 | CC(C)N1CCC(c2cccc(-c3nn(Cc4ccc(-c5nnc(C(F)F)o5)cn4)c(=S)o3)c2F)CC1 [Compound 80, 3-[[5-[5-(difluoromethyl)-1,3,4-oxadiazol-2-yl]-2-pyridyl]methyl]-5-[2-fluoro-3-(1-isopropyl-4-piperidyl)phenyl]-1,3,4-oxadiazol-2-thione] | > 50000 | 649 | 77.1

Further lines, results first:

Row | IC50 (human recombinant HDAC1) [nM] | HDAC6 selectivity (fold) (human recombinant HDAC6) | IC50 (human recombinant HDAC6) [nM] | Compound
10 | > 50000 | 554 | 90.3 | CC(C)N1CCN(Cc2ccc(-c3nn(Cc4ccc(-c5nnc(C(F)F)o5)cn4)c(=O)o3)cc2)CC1 [Compound 83, 3-[[5-[5-(difluoromethyl)-1,3,4-oxadiazol-2-yl]-2-pyridyl]methyl]-5-[4-[(4-isopropylpiperazin-1-yl)methyl]phenyl]-1,3,4-oxadiazol-2-one]
11 | > 50000 | 862 | 58.1 | FC(F)c1nnc(-c2ccc(Cn3nc(-c4ccc(CN5CC[C@@H](F)C5)cc4)oc3=S)nc2)o1 [Compound 97, 3-[[5-[5-(difluoromethyl)-1,3,4-oxadiazol-2-yl]-2-pyridyl]methyl]-5-[4-[[(3R)-3-fluoropyrrolidin-1-yl]methyl]phenyl]-1,3,4-oxadiazol-2-thione]
12 | > 50000 | 1188 | 42.1 | FC(F)c1nnc(-c2ccc(Cn3nc(-c4cccc(N5CCN(C6CCCC6)CC5)n4)oc3=S)nc2)o1 [Compound 102, 5-[6-(4-cyclopentylpiperazin-1-yl)-2-pyridyl]-3-[[5-[5-(difluoromethyl)-1,3,4-oxadiazol-2-yl]-2-pyridyl]methyl]-1,3,4-oxadiazol-2-thione]
13 | > 50000 | 2049 | 24.4 | CCN1CCN(c2cccc(-c3nn(Cc4ccc(-c5nnc(C(F)F)o5)cn4)c(=S)o3)n2)CC1 [Compound 100, 3-[[5-[5-(difluoromethyl)-1,3,4-oxadiazol-2-yl]-2-pyridyl]methyl]-5-[6-(4-ethylpiperazin-1-yl)-2-pyridyl]-1,3,4-oxadiazol-2-thione]
14 | > 50000 | 185 | 271 | Cn1c(-c2ccccc2)cn(Cc2ccc(-c3nnc(C(F)F)o3)cn2)c1=O [Compound 144, 1-((5-(5-(difluoromethyl)-1,3,4-oxadiazol-2-yl)pyridin-2-yl)methyl)-3-methyl-4-phenyl-1,3-dihydro-2H-imidazol-2-one]
15 | > 50000 | 552 | 90.6 | FC(F)c1nnc(-c2ccc(Cn3nc(-c4ccc(CN5CC[C@H](F)C5)cc4)oc3=S)nc2)o1 [Compound 98, 3-[[5-[5-(difluoromethyl)-1,3,4-oxadiazol-2-yl]-2-pyridyl]methyl]-5-[4-[[(3S)-3-fluoropyrrolidin-1-yl]methyl]phenyl]-1,3,4-oxadiazol-2-thione]
16 | > 50000 | 824 | 60.7 | Fc1cc(-c2nnc(C(F)F)o2)cnc1Cn1nc(-c2ccc(CN3CC[C@H](F)C3)cc2)oc1=S [Compound 114, 3-[[5-[5-(difluoromethyl)-1,3,4-oxadiazol-2-yl]-3-fluoro-2-pyridyl]methyl]-5-[4-[[(3S)-3-fluoropyrrolidin-1-yl]methyl]phenyl]-1,3,4-oxadiazol-2-thione]
17 | > 50000 | 893 | 56 | CC(C)N1CCc2cc(-c3nn(Cc4ccc(-c5nnc(C(F)F)o5)cn4)c(=S)o3)sc2C1 [Compound 141, 3-[[5-[5-(difluoromethyl)-1,3,4-oxadiazol-2-yl]-2-pyridyl]methyl]-5-(6-isopropyl-5,7-dihydro-4H-thieno[2,3-c]pyridin-2-yl)-1,3,4-oxadiazol-2-thione]
18 | > 50000 | 1672 | 29.9 | FC(F)c1nnc(-c2ccc(Cn3nc(-c4ccc(CN5CCCCC5)cc4)oc3=S)nc2)o1 [Compound 94, 3-[[5-[5-(difluoromethyl)-1,3,4-oxadiazol-2-yl]-2-pyridyl]methyl]-5-[4-(1-piperidylmethyl)phenyl]-1,3,4-oxadiazol-2-thione]
